Source: patent publication US20230148214A1, “INDAZOLES AND AZAINDAZOLES AS LRRK2 INHIBITORS” (ESCAPE Bio, Inc., priority 2020, published 2023)

Columns and labels:
[1] = target: T1, LRRK2 WT (Homo sapiens, UniProt Q5S007); experiment: LRRK2 Kinase Activity Assay (LanthaScreen TR-FRET), wild type; format: biochemical; conditions: recombinant wild type LRRK2, 25 μM ATP, 400 nM LRRKtide, 60 min; class symbols
T1 construct: purchased Life Technologies PR8604B
Summary of the method: (§1)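 Recombinant wild-type or G2019S LRRK2 incubated with fluorescein-labeled LRRKtide (ERM-based) peptide, ATP and serially diluted compound for 60 min at room temperature.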

[2] = target: T2, LRRK2 G2019S (Homo sapiens, UniProt Q5S007, G2019S); experiment: LRRK2 Kinase Activity Assay (LanthaScreen TR-FRET), G2019S; format: biochemical; conditions: recombinant G2019S-LRRK2, 25 μM ATP, 400 nM LRRKtide, 60 min; class symbols
T2 construct: purchased Life Technologies PV4881
T2 sequence (Q5S007 whole entry G2019S): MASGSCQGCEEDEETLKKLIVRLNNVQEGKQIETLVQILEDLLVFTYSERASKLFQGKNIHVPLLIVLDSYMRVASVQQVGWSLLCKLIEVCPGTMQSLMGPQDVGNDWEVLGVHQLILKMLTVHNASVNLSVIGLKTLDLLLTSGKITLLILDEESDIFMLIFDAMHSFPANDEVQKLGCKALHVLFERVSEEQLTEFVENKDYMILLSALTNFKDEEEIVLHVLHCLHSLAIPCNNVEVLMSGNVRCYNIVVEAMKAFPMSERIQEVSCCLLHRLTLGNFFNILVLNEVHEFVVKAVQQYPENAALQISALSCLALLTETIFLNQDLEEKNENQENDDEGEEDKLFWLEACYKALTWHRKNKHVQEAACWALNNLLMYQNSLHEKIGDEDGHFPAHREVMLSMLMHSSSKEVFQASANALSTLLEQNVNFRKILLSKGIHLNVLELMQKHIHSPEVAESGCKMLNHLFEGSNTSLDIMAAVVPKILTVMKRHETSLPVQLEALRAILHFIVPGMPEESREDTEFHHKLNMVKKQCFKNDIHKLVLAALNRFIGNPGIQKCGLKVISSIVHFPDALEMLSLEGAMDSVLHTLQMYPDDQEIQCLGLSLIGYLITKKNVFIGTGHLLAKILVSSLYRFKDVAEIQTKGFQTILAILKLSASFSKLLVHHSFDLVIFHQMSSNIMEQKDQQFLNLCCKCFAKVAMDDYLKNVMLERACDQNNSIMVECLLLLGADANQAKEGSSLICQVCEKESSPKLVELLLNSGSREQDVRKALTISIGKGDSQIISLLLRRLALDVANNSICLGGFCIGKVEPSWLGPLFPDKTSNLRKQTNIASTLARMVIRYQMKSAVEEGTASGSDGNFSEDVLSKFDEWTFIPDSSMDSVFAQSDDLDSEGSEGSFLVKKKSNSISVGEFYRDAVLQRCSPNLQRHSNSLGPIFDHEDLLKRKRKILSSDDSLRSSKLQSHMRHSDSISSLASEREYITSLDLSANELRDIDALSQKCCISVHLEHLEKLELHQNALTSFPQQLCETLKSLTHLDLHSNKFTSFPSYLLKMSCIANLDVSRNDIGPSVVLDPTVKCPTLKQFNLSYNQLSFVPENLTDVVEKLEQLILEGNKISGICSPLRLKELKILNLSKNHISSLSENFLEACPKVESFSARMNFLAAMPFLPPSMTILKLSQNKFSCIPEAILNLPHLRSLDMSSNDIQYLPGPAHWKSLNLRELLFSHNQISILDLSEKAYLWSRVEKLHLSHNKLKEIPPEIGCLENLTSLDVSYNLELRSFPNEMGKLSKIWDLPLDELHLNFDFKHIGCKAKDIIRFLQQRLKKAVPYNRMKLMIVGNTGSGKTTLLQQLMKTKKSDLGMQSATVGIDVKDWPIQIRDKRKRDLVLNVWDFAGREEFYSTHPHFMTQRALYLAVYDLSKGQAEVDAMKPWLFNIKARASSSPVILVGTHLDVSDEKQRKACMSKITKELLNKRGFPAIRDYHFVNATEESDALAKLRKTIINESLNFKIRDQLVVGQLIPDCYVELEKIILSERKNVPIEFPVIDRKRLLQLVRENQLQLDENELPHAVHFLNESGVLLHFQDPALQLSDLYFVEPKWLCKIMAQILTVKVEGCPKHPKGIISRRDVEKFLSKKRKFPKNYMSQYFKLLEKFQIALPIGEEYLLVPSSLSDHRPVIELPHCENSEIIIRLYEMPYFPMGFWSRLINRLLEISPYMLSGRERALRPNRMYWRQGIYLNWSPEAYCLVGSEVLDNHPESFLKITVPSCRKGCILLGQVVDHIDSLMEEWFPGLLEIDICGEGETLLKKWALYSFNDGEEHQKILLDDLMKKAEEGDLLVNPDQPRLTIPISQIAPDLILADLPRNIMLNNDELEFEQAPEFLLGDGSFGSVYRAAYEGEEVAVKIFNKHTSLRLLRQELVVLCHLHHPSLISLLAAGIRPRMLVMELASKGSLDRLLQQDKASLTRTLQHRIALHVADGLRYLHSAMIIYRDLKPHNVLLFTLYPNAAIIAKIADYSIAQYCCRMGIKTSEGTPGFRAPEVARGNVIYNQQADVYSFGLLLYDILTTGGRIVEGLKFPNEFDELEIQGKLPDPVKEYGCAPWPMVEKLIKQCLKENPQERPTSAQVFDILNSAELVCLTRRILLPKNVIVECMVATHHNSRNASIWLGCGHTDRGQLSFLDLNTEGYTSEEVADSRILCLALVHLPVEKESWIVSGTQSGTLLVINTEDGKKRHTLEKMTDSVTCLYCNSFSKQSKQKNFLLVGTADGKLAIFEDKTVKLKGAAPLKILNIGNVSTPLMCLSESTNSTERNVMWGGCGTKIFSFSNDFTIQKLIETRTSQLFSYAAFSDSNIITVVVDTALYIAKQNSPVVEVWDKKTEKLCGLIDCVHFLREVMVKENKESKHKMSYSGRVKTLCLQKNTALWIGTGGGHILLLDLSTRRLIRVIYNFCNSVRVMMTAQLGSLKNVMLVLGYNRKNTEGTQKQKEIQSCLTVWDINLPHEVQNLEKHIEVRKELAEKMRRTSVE
Summary of the method: as §1

T1 sequence (Q5S007 whole entry): as the sequence (Q5S007 whole entry G2019S) above, with S2019G counted along it

## Cc1c(C#N)cnc2c1CCC[C@@H]2Nc1ccc2[nH]nc(-c3cnco3)c2c1 (single isomer, unassigned) [Example 150, enantiomer 1, 4-Methyl-8-((3-(oxazol-5-yl)-1H-indazol-5-yl)amino)-5,6,7,8-tetrahydroquinoline-3-carbonitrile]
[1]
  IC50: 100 to 1000 nM
[2]
  IC50: 100 to 1000 nM

## Cc1c(C#N)cnc2c1CCC[C@@H]2Nc1ccc2[nH]nc(-c3cnco3)c2c1 (single isomer, unassigned) [Example 150, enantiomer 2, 4-Methyl-8-((3-(oxazol-5-yl)-1H-indazol-5-yl)amino)-5,6,7,8-tetrahydroquinoline-3-carbonitrile]
[1]
  IC50: < 100 nM
[2]
  IC50: < 100 nM

## N#Cc1ccc2c(c1F)CC(F)(F)[C@@H]2Nc1ccc2[nH]nc(-c3cnco3)c2c1 (single isomer, unassigned) [Example 151, enantiomer 1, 2,2,4-Trifluoro-1-((3-(oxazol-5-yl)-1H-indazol-5-yl)amino)-2,3-dihydro-1H-indene-5-carbonitrile]
[1]
  IC50: 100 to 1000 nM
[2]
  IC50: < 100 nM

## N#Cc1ccc2c(c1)CCCC2Oc1ccc2[nH]nc(C(F)(F)F)c2c1 (single isomer, unassigned) [Example 152, enantiomer 1, 5-((3-(Trifluoromethyl)-1H-indazol-5-yl)oxy)-5,6,7,8-tetrahydronaphthalene-2-carbonitrile]
[1]
  IC50: 1000 to 10000 nM
[2]
  IC50: 1000 to 10000 nM

## N#Cc1ccc2c(c1)CCCC2Nc1ccc2[nH]nc(C(F)(F)F)c2c1 (single isomer, unassigned) [Example 153, enantiomer 1, 5-((3-(Trifluoromethyl)-1H-indazol-5-yl)amino)-5,6,7,8-tetrahydronaphthalene-2-carbonitrile]
[1]
  IC50: 1000 to 10000 nM
[2]
  IC50: < 100 nM

## COc1c(C#N)cnc2c1CC[C@@H]2Nc1ccc2[nH]nc(-c3cnco3)c2c1 (single isomer, unassigned) [Example 154, enantiomer 2, 4-Methoxy-7-((3-(oxazol-5-yl)-1H-indazol-5-yl)amino)-6,7-dihydro-5H-cyclopenta[b]pyridine-3-carbonitrile]
[1]
  IC50: < 100 nM
[2]
  IC50: < 100 nM

## Cc1ncc(-c2n[nH]c3ccc(N[C@@H]4c5ccc(C#N)cc5CC4(F)F)cc23)o1 (single isomer, unassigned) [Example 155, enantiomer 1, 2,2-Difluoro-1-((3-(2-methyloxazol-5-yl)-1H-indazol-5-yl)amino)-2,3-dihydro-1H-indene-5-carbonitrile]
[1]
  IC50: < 100 nM
[2]
  IC50: < 100 nM

## Cc1ncc(-c2n[nH]c3ccc(O[C@H]4CCc5c4ccc(C#N)c5F)cc23)o1 (single isomer, unassigned) [Example 156, enantiomer 1, 4-Fluoro-1-((3-(2-methyloxazol-5-yl)-1H-indazol-5-yl)oxy)-2,3-dihydro-1H-indene-5-carbonitrile]
[1]
  IC50: < 100 nM
[2]
  IC50: < 100 nM

## N#Cc1ccc2c(c1)CCC[C@@H]2Nc1ccc2[nH]nc(-c3ccn[nH]3)c2c1 (single isomer, unassigned) [Example 157, enantiomer 1, 5-((3-(1H-Pyrazol-5-yl)-1H-indazol-5-yl)amino)-5,6,7,8-tetrahydronaphthalene-2-carbonitrile]
[1]
  IC50: 100 to 1000 nM
[2]
  IC50: 100 to 1000 nM

## N#Cc1ccc2c(c1)CCC[C@@H]2Nc1ccc2[nH]nc(-c3ccn[nH]3)c2c1 (single isomer, unassigned) [Example 157, enantiomer 2, 5-((3-(1H-Pyrazol-5-yl)-1H-indazol-5-yl)amino)-5,6,7,8-tetrahydronaphthalene-2-carbonitrile]
[1]
  IC50: < 100 nM
[2]
  IC50: < 100 nM

## Cc1cc(-c2n[nH]c3ccc(N[C@H]4CCCc5cc(C#N)cnc54)cc23)sn1 (single isomer, unassigned) [Example 158, enantiomer 1, 8-((3-(3-Methylisothiazol-5-yl)-1H-indazol-5-yl)amino)-5,6,7,8-tetrahydroquinoline-3-carbonitrile]
[1]
  IC50: < 100 nM
[2]
  IC50: < 100 nM

## Cc1ncc(-c2n[nH]c3ccc(N[C@H]4CCCc5cc(C#N)c(C)nc54)cc23)o1 (single isomer, unassigned) [Example 159, enantiomer 1, 2-Methyl-8-((3-(2-methyloxazol-5-yl)-1H-indazol-5-yl)amino)-5,6,7,8-tetrahydroquinoline-3-carbonitrile]
[1]
  IC50: < 100 nM
[2]
  IC50: < 100 nM

## Cc1ncc(-c2n[nH]c3ccc(O[C@H]4CCc5cc(C#N)c(F)cc54)cc23)o1 (single isomer, unassigned) [Example 160, enantiomer 1, 6-Fluoro-1-((3-(2-methyloxazol-5-yl)-1H-indazol-5-yl)oxy)-2,3-dihydro-1H-indene-5-carbonitrile]
[1]
  IC50: < 100 nM
[2]
  IC50: < 100 nM

## N#Cc1cnc2c(c1)CCC[C@@H]2Oc1ccc2[nH]nc(-c3cnccn3)c2c1 (single isomer, unassigned) [Example 161, enantiomer 1, 8-((3-(Pyrazin-2-yl)-1H-indazol-5-yl)oxy)-5,6,7,8-tetrahydroquinoline-3-carbonitrile]
[1]
  IC50: < 100 nM
[2]
  IC50: < 100 nM

## N#Cc1cnc2c(c1)CCC[C@@H]2Oc1ccc2[nH]nc(-c3cnccn3)c2c1 (single isomer, unassigned) [Example 161, enantiomer 2, 8-((3-(Pyrazin-2-yl)-1H-indazol-5-yl)oxy)-5,6,7,8-tetrahydroquinoline-3-carbonitrile]
[1]
  IC50: 100 to 1000 nM
[2]
  IC50: < 100 nM

## [2H][C@]1(Nc2ccc3[nH]nc(-c4cnco4)c3c2)CCCc2cc(C#N)cnc21 (single isomer, unassigned) [Example 162, enantiomer 1, 8-Deuterio-8-((3-(oxazol-5-yl)-1H-indazol-5-yl)amino)-5,6,7,8-tetrahydroquinoline-3-carbonitrile]
[1]
  IC50: 100 to 1000 nM
[2]
  IC50: 100 to 1000 nM

## [2H][C@]1(Nc2ccc3[nH]nc(-c4cnco4)c3c2)CCCc2cc(C#N)cnc21 (single isomer, unassigned) [Example 162, enantiomer 2, 8-Deuterio-8-((3-(oxazol-5-yl)-1H-indazol-5-yl)amino)-5,6,7,8-tetrahydroquinoline-3-carbonitrile]
[1]
  IC50: < 100 nM
[2]
  IC50: < 100 nM

## N#Cc1cnc2c(n1)CCC[C@@H]2Oc1ccc2[nH]nc(-c3cnco3)c2c1 (single isomer, unassigned) [Example 163, enantiomer 1, 5-[[3-(1,3-Oxazol-5-yl)-1H-indazol-5-yl]oxy]-5,6,7,8-tetrahydroquinoxaline-2-carbonitrile]
[1]
  IC50: 100 to 1000 nM
[2]
  IC50: < 100 nM

## Cc1nc2c(c(C)c1C#N)CCC[C@@H]2Nc1ccc2[nH]nc(-c3cnco3)c2c1 (single isomer, unassigned) [Example 164, enantiomer 1, 2,4-Dimethyl-8-[[3-(1,3-oxazol-5-yl)-1H-indazol-5-yl]amino]-5,6,7,8-tetrahydroquinoline-3-carbonitrile]
[1]
  IC50: 100 to 1000 nM
[2]
  IC50: < 100 nM

## COc1nc2c(c(C)c1C#N)CCC[C@@H]2Nc1ccc2[nH]nc(-c3cnco3)c2c1 (single isomer, unassigned) [Example 165, enantiomer 1, 2-Methoxy-4-methyl-8-[[3-(1,3-oxazol-5-yl)-1H-indazol-5-yl]amino]-5,6,7,8-tetrahydroquinoline-3-carbonitrile]
[1]
  IC50: 100 to 1000 nM
[2]
  IC50: < 100 nM

## Cc1c(C#N)c(Cl)nc2c1CC[C@@H]2Oc1ccc2[nH]nc(-c3cnco3)c2c1 (single isomer, unassigned) [Example 166, enantiomer 1, 2-Chloro-4-methyl-7-[[3-(1,3-oxazol-5-yl)-1H-indazol-5-yl]oxy]-6,7-dihydro-5H-cyclopenta[b]pyridine-3-carbonitrile]
[1]
  IC50: < 100 nM
[2]
  IC50: < 100 nM

## N#Cc1c(F)cc2c(c1F)CC[C@@H]2Oc1ccc2[nH]nc(-c3cnco3)c2c1 (single isomer, unassigned) [Example 167, enantiomer 1, 4,6-Difluoro-1-[[3-(1,3-oxazol-5-yl)-1H-indazol-5-yl]oxy]-2,3-dihydro-1H-indene-5-carbonitrile]
[1]
  IC50: 100 to 1000 nM
[2]
  IC50: < 100 nM

## C[C@@H]1C[C@@H](Nc2ccc3[nH]nc(-c4cnco4)c3c2)c2ccc(C#N)cc21 (single isomer, unassigned) [Example 168, enantiomer 1, trans-3-Methyl-1-[[3-(1,3-oxazol-5-yl)-1H-indazol-5-yl]amino]-2,3-dihydro-1H-indene-5-carbonitrile]
[1]
  IC50: 100 to 1000 nM
[2]
  IC50: < 100 nM

## C[C@@H]1C[C@@H](Nc2ccc3[nH]nc(-c4cnco4)c3c2)c2ccc(C#N)cc21 (single isomer, unassigned) [Example 168, enantiomer 2, trans-3-Methyl-1-[[3-(1,3-oxazol-5-yl)-1H-indazol-5-yl]amino]-2,3-dihydro-1H-indene-5-carbonitrile]
[1]
  IC50: 100 to 1000 nM
[2]
  IC50: < 100 nM

## C[C@H]1C[C@@H](Nc2ccc3[nH]nc(-c4cnco4)c3c2)c2ccc(C#N)cc21 (single isomer, unassigned) [Example 169, enantiomer 1, cis-3-Methyl-1-[[3-(1,3-oxazol-5-yl)-1H-indazol-5-yl]amino]-2,3-dihydro-1H-indene-5-carbonitrile]
[1]
  IC50: 100 to 1000 nM
[2]
  IC50: < 100 nM

## C[C@H]1C[C@@H](Nc2ccc3[nH]nc(-c4cnco4)c3c2)c2ccc(C#N)cc21 (single isomer, unassigned) [Example 169, enantiomer 2, cis-3-Methyl-1-[[3-(1,3-oxazol-5-yl)-1H-indazol-5-yl]amino]-2,3-dihydro-1H-indene-5-carbonitrile]
[1]
  IC50: 100 to 1000 nM
[2]
  IC50: < 100 nM

## Cc1nc2c(c(C)c1C#N)CC[C@@H]2Nc1ccc2[nH]nc(-c3cnco3)c2c1 (single isomer, unassigned) [Example 170, enantiomer 1, 2,4-Dimethyl-7-[[3-(1,3-oxazol-5-yl)-1H-indazol-5-yl]amino]-6,7-dihydro-5H-cyclopenta[b]pyridine-3-carbonitrile]
[1]
  IC50: < 100 nM
[2]
  IC50: < 100 nM
